From US20260364186A1, “Chemical Conjugates, Compositions, and Methods of Preparation and Use Thereof” (Transfection Holdings Limited, priority 2022, published 2026)

Legend:
Format in all cases: cell-based, human
[1] = tested on: NZM40 (NRAS Q16H) melanoma cells; assay: FACS uptake of BODIPY FL conjugates, 200 nM, 5 min (Example 2)
Description: FIG. 2. Conjugate compounds coupled to BODIPY FL were tested for uptake using 200 nM each conjugate and 5 minute incubation with melanoma cell line NZM11 (BRAF V600E mutant metastatic melanoma), melanoma cell line NZM40 (NRAS Q16H mutant metastatic melanoma) and melanoma cell line NZM9 (BRAF and NRAS wildtype metastatic melanoma). Mean fluorescent intensities (MFI). 2,000 cells (NZM11), 1,000 cells (NZM40) and 500-1,000 cells (NZM9). Cells were sorted by FACS. Bars represent mean±SD. Results were from a single experiment done in triplicate.
NZM40 is an adherent cell line which was originally derived from a metastatic melanoma from a patient, in 2004. This human metastatic melanoma is identified with code CBA-1381 from Cell bank Australia. […] Ras is a superfamily of proteins implicated in cell growth, survival and differentiation. NRAS (neuroblastoma rat sarcoma) was the first oncogene recognized in melanoma and mutations in NRAS account for 20% of all melanomas. NRAS mutations primarily occur at position 61 and involve amino acid change from glutamine (Q) to arginine (R), lysine (K), leucine (L) or histidine (H). These mutations block NRAS into a GTP-bound state damaging its GTPase activity (FIG. 1). Patients are usually older (>55 years) with previous UV exposure. See Garcia-Alverez et al., 2021.
For screening, NZM11, NZM40 and NZM9 cells were suspended at […] dispensed into 96 well plates and left to settle for 48 hours. Then, 10 μL of 10 mM stock solutions in DMSO for the conjugates were diluted with HBSS to afford 400 nM solution. Next, 400 nM compounds and DMSO solutions were diluted 1:1 with MEMα media to afford 200 nM solutions. After 48 hours the media was removed from the 96 well plates and 200 μL of 200 nM conjugates solutions dispensed to each well (in triplicate) and incubated for 5 minutes at 37 °C. After 5 minutes, the media was removed and cells washed with PBS. Then, 100 μL of TrypLE trypsin (ThermoFisher Scientific) were added to each well and incubated for 5 minutes at 37 °C after which, 100 μL of MEMα media were added and samples were sorted through FACS biosort. The FACS results output were represented as the mean of the fluorescence intensities (in arbitrary units) measured for cells sorted in every sample.

monocytes = assay: FACS uptake of BODIPY FL conjugates in PBMCs (Example 3); conditions: 135 nM
Description: (§1) FIG. 3A. Conjugate compounds coupled to BODIPY FL were tested for uptake using 135 nM each conjugate and 4.5 minute incubation with human lymphocytes, monocytes and neutrophils (from a healthy donor). Mean fluorescent intensities (MFI). 1,000 cells (lymphocytes), 500 cells (monocytes) and 250 cells (neutrophils) sorted by FACS. Bars represent mean±SD. Results represent a single experiment done in duplicate.
(§2) In addition to this, 25 mL of full blood was collected from a healthy donor in lithium-heparin vacutainer. Peripheral blood mononuclear cells (PBMCs) were collected after ficoll separation. PBMCs then were centrifuge at 400 g for 5 minutes. Supernatant was removed from the cells and resuspended with 20 mL of HBSS with a final concentration of 417,500 cells/mL. Then, 479 μL of cells suspension were poured into Eppendorf tube and 1000 μL of 200 nM drug solution in HBSS were added to afford 135 nM final drug concentration, incubated at 37 °C for 5 minutes. After incubation time, PBMCs were centrifuged at 400 g for 5 minutes. Supernatant was removed from the cells and pellet resuspended with 200 μL of HBSS. Suspension was transferred to 96 well-plate and run on FACS machine, approximately 1,000-250 cells analysed. The FACS results output represented the mean of the fluorescence intensities (in arbitrary units) measured for cells sorted in every sample.

neutrophils = assay: as above; conditions: 135 nM
Description: as §1, §2

Jurkat cells = assay: FACS uptake of BODIPY FL conjugates in Jurkat cells (Example 3); conditions: 200 nM
Description: FIG. 3B: Conjugate compounds coupled to BODIPY FL were tested for uptake using 200 nM each conjugate and 5 minute incubation with immortalized T lymphocyte cell line, Jurkat cells. Mean fluorescent intensities (MFI). 1,000 cells sorted by FACS. Bars represent mean±SD. Results represent a single experiment done in duplicate.
Materials and methods: Jurkat cells have been previously shown to be defective in the expression of two lipid phosphatases, PTEN (phosphatase and tensin homologue) and SHIP (SH2-domain-containing inositol polyphosphate 5′ phosphatase). The biological implications of SHIP deficiency in T cells remain under evaluation, but the loss of PTEN leads to activation of the phosphatidylinositol 3-kinase (PI3K)-signalling pathway. See Abraham and Weiss, 2004. This activation of PI3K protein is also on NZM40 melanoma cell line, and represents a key mutation for its sustained proliferation. See Silva et al., 2017. For these experiments, Jurkat cells were diluted on RPMI media (supplemented with 10% FBS+1% penicillin-streptomycin) to afford 400 cells/μL. 2 μL of 100 μM stock solutions in DMSO from 138 and pantothenic acid/pantothenic acid derivatives coupled to BODIPY were diluted with 998 μL of RPMI media (supplemented with 10% FBS+1% penicillin-streptomycin) to afford 200 nM solution. 100,000 cells were dispensed to Eppendorf tubes, centrifuged for 1.5 min at 5000 rcf and the supernatant was removed. The cells then were incubated with 500 μL of solutions at 200 nM for 4.5 min and 37 °C. After the incubation time, cells were centrifuged for 1.5 minutes at 5000 rcf. Supernatant was removed and cell pellet re-suspended in 200 μL fresh RPMI media, transferred to 96 well-plate and run on FACS machine, approximately 1,000 cells analysed.

[2] = tested on: HT29 (colorectal cancer cell line); assay: FACS uptake of BODIPY FL conjugates (Example 4); conditions: 200 nM, 5 min
Description: FIG. 4A: Conjugate compounds coupled to BODIPY FL were tested for uptake using 200 nM each conjugate and 5 minute incubation with colorectal cancer cell line HT29. Mean fluorescent intensities (MFI). 1,000 cells were sorted by FACS.
Materials and methods: The HT-29 line was originally isolated from a primary tumour in 1964 from a person. This cell line is positive for expression of N-ras and overexpression of p53 antigen. The human colon adenocarcinoma cell line HT29, is not only used to study the biology of human colon cancers, but it is receiving special interest in studies focused on food digestion and bioavailability due to the ability to express characteristics of mature intestinal cells. The application of this cell line to transport studies of drugs and food compounds is illustrated, especially when the effect of the mucus layer is considered or used as co-culture in combination with Caco-2 cells. These cells have shown a high rate of glucose consumption and therefore, they require high glucose concentration in the medium. Verhoeck et al., 2015.
For these experiments, HT-29 or MEF cells were diluted on αMEM media (supplemented with 10% FBS+1% penicillin-streptomycin) to give a 250 cells/μL suspension of which 200 μL were aliquoted into each well of a 96 well plate followed by incubation for 24 hours. Next, 2 μL of 100 μM stock solutions in DMSO from the conjugates coupled to BODIPY were diluted with 998 μL of αMEM media to give a 200 nM solution. After 24 hour incubation, media was removed and 200 μL of 138 and pantothenic acid/pantothenic acid derivatives coupled to BODIPY 200 nM solutions were added and cells were incubated for 5 minutes at 37 °C. After 5 minutes, the compounds and DMSO solutions were removed and cells were washed with PBS. Then, 100 μL of TrypLE trypsin were added to each well and incubated for 5 minutes at 37 °C. After this time, 100 μL of DMEM media were added to the wells and samples were sorted through FACS biosort. The studies were completed in duplicated wells.

Structure (SMILES): CC1=CC(C)=[N+]2C1=Cc1ccc(CCCn3cc(CCNC(=O)/C=C\NC(=O)[C@H](O)C(C)(C)CO)nn3)n1[B-]2(F)F [Compound 128, (Z)—N-((((3-[4,4-Difluoro-5,7-dimethyl-4-bora-3a,4a-diaza-s-indacene-3-yl]propyl)-1H-1,2,3-triazol-4-yl)ethylamino)-3-oxoprop-1-enyl)-2,4-dihydroxy-3,3-dimethylbutanamide]
- uptake (fluorescence intensities) [1]: showed selectivity
- targeting / fluorescence intensities (monocytes): significant intensities
- targeting / fluorescence intensities (neutrophils): significant intensities
- uptake / targeting (Jurkat cells): showed targeting

Structure (SMILES): CC1=CC(C)=[N+]2C1=Cc1ccc(CCCn3cc(CCNC(=O)/C=C/NC(=O)[C@H]4OC(C)(C)OCC4(C)C)nn3)n1[B-]2(F)F [Compound 127, (E)-N-((((3-[4,4-Difluoro-5,7-dimethyl-4-bora-3a,4a-diaza-s-indacene-3-yl]propyl)-1H-1,2,3-triazol-4-yl)ethylamino)-3-oxoprop-1-enyl)-2,2,5,5-tetramethyl-1,3-dioxane-4-carboxamide]
- uptake (fluorescence intensities) [1]: showed selectivity
- targeting / fluorescence intensities (monocytes): showed targeting
- targeting / fluorescence intensities (neutrophils): showed targeting
- uptake / targeting (Jurkat cells): showed targeting
- uptake (fluorescent intensities) [2]: moderately higher fluorescent intensities
